Measurements as given in patent US12037324B2, “Biarylmethyl heterocycles” (Université de Montréal, priority 2016, dated 2024).

Key:
hAT1R [1] = biological target: T1, hAT1R (Homo sapiens, UniProt P30556); assay: cell-based; details: agonist mode; for EC50: read-out: BRET P63 EC50
T1 sequence (P30556 1-359): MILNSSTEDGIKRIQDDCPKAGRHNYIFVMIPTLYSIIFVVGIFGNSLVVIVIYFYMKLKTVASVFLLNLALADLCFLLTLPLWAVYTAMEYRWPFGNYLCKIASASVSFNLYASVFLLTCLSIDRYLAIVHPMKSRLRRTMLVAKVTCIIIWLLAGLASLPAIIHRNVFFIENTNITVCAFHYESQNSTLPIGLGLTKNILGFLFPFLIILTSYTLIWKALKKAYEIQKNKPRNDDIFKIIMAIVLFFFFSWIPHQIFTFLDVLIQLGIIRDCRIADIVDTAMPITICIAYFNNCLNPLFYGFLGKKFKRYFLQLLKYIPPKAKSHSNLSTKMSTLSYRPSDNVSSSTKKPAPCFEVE

hAT1R [2] = biological target: T1, hAT1R; assay: cell-based
AGTR1 [3] = biological target: T2, AGTR1 (Homo sapiens, UniProt P30556); assay: DiscoveRx β-arrestin2 recruitment assay (enzyme complementation, Pathunter CHO-K1 AGTR1 β-arrestin cell line); type: cell-based; details: DiscoveRx β-arrestin2 recruitment; for DiscoveRx β-arrestin2 Ymax (%): maximal response
T2 construct: host or cells: Pathunter CHO-K1 AGTR1 β-arrestin cell line (CHO-K1)
T2 sequence (P30556 1-359): T1 sequence (P30556 1-359)
Method in brief: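 CHO-K1 cells expressing AGTR1 with β-arrestin2 enzyme-complementation reporter, plated 14-16 h ahead in 1% serum medium, then exposed to compounds for 90 min at 37° C. Chemiluminescence read after 1 h detection. EC50 (agonist) or IC50 (antagonist) from 4-parameter logistic fit; activity as percentage of All maximal effect.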

hAT1R [4] = biological target: T1, hAT1R; assay: BRET β-arrestin2 biosensor assay, higher receptor expression (hAT1R 5 ng/well), HEK293 cells; type: cell-based; details: for EC50: High AT1R Expression
AGTR1 [5] = biological target: T2, AGTR1; assay: DiscoveRx IP1 accumulation assay (HTRF), agonist mode, Pathunter CHO-K1 AGTR1 β-arrestin cell line; type: cell-based; details: for EC50: read-out: IP-1 EC50
Method in brief: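 Agonist mode in CHO-K1 AGTR1 β-arrestin cells plated 14-16 h before; compounds at varying concentrations for 90 min at 37° C, IP1 accumulation read by HTRF (D2-conjugate and anti-IP1 cryptate, 20 min room temperature). EC50 from 4-parameter logistic fit; activity given as percentage of maximal AII effect.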

[6] = section of the 42nd table ending at r951, example numbering restarts after the DiscoveRx section, read-out: β-arrestin2 EC50
[7] = Low AT1R Expression, read-out: BRET β-Arrestin2 Low AT1R Expression EC50

Row | Compound | BRET P63 Ymax (hAT1R [1]) | EC50 (hAT1R [1]) | EC50 (hAT1R [2]; [6]) | EC50 (AGTR1 [3]) | DiscoveRx β-arrestin2 Ymax (%) (AGTR1 [3]) | BRET β-Arrestin2 Low AT1R Expression Ymax (%) (hAT1R [2]; Low AT1R Expression) | EC50 (hAT1R [2]; [7]) | BRET β-Arrestin2 High AT1R Expression Ymax (%) (hAT1R [4]) | EC50 (hAT1R [4]) | IP-1 Ymax (%) (AGTR1 [5]) | EC50 (AGTR1 [5])
1 | CC1=NC2(CCOC2)C(=O)N1Cc1ccc(-c2cc(-c3ccccc3)ccc2-c2nn[nH]n2)cc1 (single isomer, unassigned) [Example 174, 3-((6′-(2H-tetrazol-5-yl)-[1,1′:3′,1″-terphenyl]-4-yl)methyl)-2-methyl-7-oxa-1,3-diazaspiro[4.4]non-1-en-4-one] | 10.3% | 770 nM | 634 nM | – | – | – | – | – | – | – | –
2 | CCc1nc2c(C)cc(C)nc2n1Cc1ccc(-c2cc(-c3cccnc3OC)ccc2-c2nn[nH]n2)cc1 [Example 24, 2-ethyl-3-((5′-(2-methoxypyridin-3-yl)-2′-(2H-tetrazol-5-yl)-[1,1′-biphenyl]-4-yl)methyl)-5,7-dimethyl-3H-imidazo[4,5-b]pyridine] | – | – | – | 13.4 nM | 24.1% | 21.6% | 13.9 nM | 73.1% | 13.5 nM | 14.5% | 20.7 nM
3 | CCc1nc2c(C)cc(C)nc2n1Cc1ccc(-c2cc(-c3cccc(OC)n3)ccc2-c2nn[nH]n2)cc1 [Example 29] | – | – | – | 8.6 nM | 29.8% | 42.2% | 18.9 nM | 82.7% | 11.3 nM | 12.1% | 38.7 nM
4 | CCc1nc2c(C)cc(C)nc2n1Cc1ccc(-c2cc(-c3ccccc3)ccc2C(=O)O)cc1 [Example 31, 4″-((2-ethyl-5,7-dimethyl-3H-imidazo[4,5-b]pyridin-3-yl)methyl)-[1,1′:3′,1″-terphenyl]-4′-carboxylic acid] | – | – | – | 33.9 nM | 55.1% | 42.4% | 84.7 nM | 85.5% | 58.2 nM | 12.3% | 234 nM
5 | CCc1nc2c(C)cc(C)nc2n1Cc1ccc(-c2cc(-c3ncc(C)s3)ccc2-c2nn[nH]n2)cc1 [Example 68] | 41.7% | 15 nM | – | – | – | 91.1% | 15.3 nM | – | – | – | –
6 | CCCCC1=NC2(CCCC2)C(=O)N1Cc1ccc(-c2cc(-c3cccc(F)c3)ccc2-c2nn[nH]n2)cc1 [Example 127] | – | > 10000 nM | – | – | – | 29.5% | 17.3 nM | 82.7% | 23.6 nM | – | –
7 | CCCCC1=NC2(CCCC2)C(=O)N1Cc1ccc(-c2cc(-c3cncc(C)c3)ccc2-c2nn[nH]n2)cc1 [Example 129] | – | – | – | 33.5 nM | 12.9% | – | > 10000 nM | 40.7% | 240 nM | 2.0% | 119 nM
8 | CCCCC1=NC2(CCCC2)C(=O)N1Cc1ccc(-c2cc(-c3cccc(C)n3)ccc2-c2nn[nH]n2)cc1 [Example 138] | – | – | – | 13.4 nM | 27.9% | – | > 10000 nM | 73.2% | 56.9 nM | 6.3% | 54.1 nM
9 | CC1=NC2(CCOCC2)C(=O)N1Cc1ccc(-c2cc(-c3cc(C)ccn3)ccc2-c2nn[nH]n2)cc1 [Example 173, 2-methyl-3-((5′-(4-methylpyridin-2-yl)-2′-(2H-tetrazol-5-yl)-[1,1′-biphenyl]-4-yl)methyl)-8-oxa-1,3-diazaspiro[4.5]dec-1-en-4-one] | 19.3% | 79.1 nM | 80.4 nM | – | – | – | – | – | – | – | –
10 | CCc1nc2c(C)cc(C)nc2n1Cc1ccc(-c2cc(-c3cccc(C)c3)ccc2C(=O)O)cc1 [Example 182] | – | – | 26.3 nM | 84.9 nM | 74.2% | – | – | 90.4% | 7 nM | 6.6% | 132 nM
11 | CCc1nc2c(C)cc(C)nc2n1Cc1ccc(-c2cc(C(=O)c3ccccc3)ccc2-c2nnn[nH]2)cc1 [Example 210, (4′-((2-Ethyl-5,7-dimethyl-3H-imidazo[4,5-b]pyridin-3-yl)methyl)-6-(1H-tetrazol-5-yl)-[1,1′-biphenyl]-3-yl)(phenyl)methanone] | – | – | 28.4 nM | 8.6 nM | 48.4% | – | – | 88.2% | 9 nM | 14.8% | 82.7 nM
12 | CCc1nc2c(C)cc(C)nc2n1Cc1ccc(-c2cc(-n3cncc3C)ccc2-c2nnn[nH]2)cc1 [Example 220] | 18.2% | 36.8 nM | 36 nM | – | – | – | – | – | – | – | –
13 | CCc1nc2c(C)cc(C)nc2n1Cc1ccc(-c2cc(-n3cnc(C)c3)ccc2-c2nnn[nH]2)cc1 [Example 221] | 5.4% | 28 nM | 159 nM | – | – | – | – | – | – | – | –
14 | CCc1nc2c(C)cc(C)nc2n1Cc1ccc(-c2cc(-n3cc(C)c(C)n3)ccc2-c2nnn[nH]2)cc1 [Example 223] | 9.8% | 5.9 nM | 9.2 nM | – | – | – | – | – | – | – | –
15 | CCc1nc2c(C)cc(C)nc2n1Cc1ccc(-c2cc(-n3cc(C(F)(F)F)cn3)ccc2-c2nnn[nH]2)cc1 [Example 224] | 20.8% | 11.3 nM | 7.6 nM | – | – | – | – | – | – | – | –
16 | CCc1nc2c(C)cc(C)nc2n1Cc1ccc(-c2cc(-c3cn(CC(F)F)nn3)ccc2-c2nnn[nH]2)cc1 [Example 242] | 45.6% | 41.6 nM | 28.2 nM | – | – | – | – | – | – | – | –
17 | CCc1nc2c(C)cc(C)nc2n1Cc1ccc(-c2cc(Oc3cccc(F)n3)ccc2-c2nn[nH]n2)cc1 [Example 256] | 30.5% | 43 nM | 34.5 nM | – | – | – | – | – | – | – | –
18 | CCc1nc2c(C)cc(C)nc2n1Cc1ccc(-c2cc(Oc3cccnc3)ccc2-c2noc(=O)[nH]2)cc1 [Example 259] | – | – | 38.8 nM | 12.9 nM | 80.6% | – | – | 83.2% | 6.9 nM | 9.9% | 21.1 nM
19 | CCOc1nc2cccc(C(=O)O)c2n1Cc1ccc(-c2cc(-c3ccc(C)cn3)ccc2-c2noc(=O)[nH]2)cc1 [Example 300, 2-ethoxy-1-((5′-(5-methylpyridin-2-yl)-2′-(5-oxo-4,5-dihydro-1,2,4-oxadiazol-3-yl)-[1,1′-biphenyl]-4-yl)methyl)-1H-benzo[d]imidazole-7-carboxylic acid] | 25.1% | 9 nM | 12.8 nM | – | – | – | – | – | – | – | –
20 | CCOc1nc2cccc(C(=O)O)c2n1Cc1ccc(-c2cc(-c3cc(OC)ccn3)ccc2-c2noc(=O)[nH]2)cc1 [Example 301] | 31.2% | 13.6 nM | 14.8 nM | – | – | – | – | – | – | – | –
21 | CCOc1nc2cccc(C(=O)O)c2n1Cc1ccc(-c2cc(-c3cccc(C)n3)ccc2-c2noc(=O)[nH]2)cc1 [Example 304] | 17.3% | 29.7 nM | 38.3 nM | – | – | – | – | – | – | – | –
22 | CCOc1nc2cccc(C(=O)O)c2n1Cc1ccc(-c2cc(-c3cnccn3)ccc2-c2noc(=O)[nH]2)cc1 [Example 307] | – | > 10000 nM | 962 nM | – | – | – | – | – | – | – | –
23 | CCOc1nc2cccc(C(=O)O)c2n1Cc1ccc(-c2cc(N3CCC[C@@H](C)C3)ccc2-c2noc(=O)[nH]2)cc1 [Example 325] | – | > 10000 nM | 201 nM | – | – | – | – | – | – | – | –
24 | CCOc1nc2cccc(C(=O)O)c2n1Cc1ccc(-c2cc(-n3cc(C)cn3)ccc2-c2nn[nH]n2)cc1 [Example 340] | 17.3% | 2.9 nM | 5.8 nM | – | – | – | – | – | – | – | –
25 | CCOc1nc2cccc(C(=O)O)c2n1Cc1ccc(-c2cc(-n3cc4ccccc4n3)ccc2-c2nn[nH]n2)cc1 [Example 341] | 18.8% | 4.4 nM | 12.2 nM | – | – | – | – | – | – | – | –
26 | CCOc1nc2cccc(C(=O)O)c2n1Cc1ccc(-c2cc(-n3ncc4ccccc43)ccc2-c2nn[nH]n2)cc1 [Example 342] | 16.5% | 3.3 nM | 3.6 nM | – | – | – | – | – | – | – | –
27 | CCOc1nc2cccc(C(=O)O)c2n1Cc1ccc(-c2cc(OC3CCCCC3)ccc2-c2nn[nH]n2)cc1 [Example 343] | 15.3% | 26.7 nM | 26.2 nM | – | – | – | – | – | – | – | –
28 | CCOc1nc2cccc(C(=O)O)c2n1Cc1ccc(-c2cc(-n3cc(C(C)C)nn3)ccc2-c2nn[nH]n2)cc1 [Example 344] | 10.4% | 16.8 nM | 767 nM | – | – | – | – | – | – | – | –
29 | CCCCc1nc(Cl)c(C(=O)O)n1Cc1ccc(-c2cc(Oc3cccnc3)ccc2-c2nn[nH]n2)cc1 [Example 428] | – | > 10000 nM | 122 nM | – | – | – | – | – | – | – | –
